# Experimental data from the supplement of paper PMC10307832.
# Tests used:
# Test in all cases: relative viability (nuclei count vs DMSO), 5 days (fraction); higher = more cells survive
# [1] = compound: C[C@@H](N)c1ccc(C(=O)Nc2ccnc3[nH]ccc23)cc1 + CC(C)C[C@H](NC(=O)[C@H](Cc1ccccc1)NC(=O)c1cnccn1)B(O)O [Bortezomib] (partner 0.002 µM)
# Procedure, shortened: (§1)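 One day after seeding in 1536-well plates, lung cancer cell lines were dosed by pin tool. Dosing was either single-drug or a fixed anchor-drug dose plus five library-drug doses (not always all listed) in √10 steps. After 5 days, nuclei were stained in one fix-and-stain step and counted on 4× images, and relative viability is the nuclei count of treated wells over that of vehicle wells, given as the median of duplicate plates.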
# [2] = compound: C[C@@H](N)c1ccc(C(=O)Nc2ccnc3[nH]ccc23)cc1 + Cc1nc(Nc2ncc(C(=O)Nc3c(C)cccc3Cl)s2)cc(N2CCN(CCO)CC2)n1 [Dasatinib] (partner 0.075 µM)
# Procedure, shortened: as §1
# [3] = compound: C[C@@H](N)c1ccc(C(=O)Nc2ccnc3[nH]ccc23)cc1 + C[C@@H](Oc1cc(-c2cnn(C3CCNCC3)c2)cnc1N)c1c(Cl)ccc(F)c1Cl [Crizotinib] (partner 1 µM)
# Procedure, shortened: as §1
# [4] = compound: C1CNCCC1C2=CC(=NN2)C3=CC=NC=C3 + CC(C)C[C@H](NC(=O)[C@H](Cc1ccccc1)NC(=O)c1cnccn1)B(O)O [Bortezomib] (partner 0.002 µM)
# Procedure, shortened: as §1
Cell Line,relative viability ([1]; first compound 0.04 µM),relative viability ([1]; first compound 0.1265 µM),relative viability ([1]; first compound 0.4 µM),relative viability ([1]; first compound 1.265 µM),relative viability ([1]; first compound 4 µM),relative viability ([2]; first compound 0.04 µM),relative viability ([2]; first compound 0.1265 µM),relative viability ([2]; first compound 0.4 µM),relative viability ([2]; first compound 1.265 µM),relative viability ([2]; first compound 4 µM),relative viability ([3]; first compound 0.04 µM),relative viability ([3]; first compound 0.1265 µM),relative viability ([3]; first compound 0.4 µM),relative viability ([3]; first compound 1.265 µM),relative viability ([3]; first compound 4 µM),relative viability ([4]; first compound 0.08 µM),relative viability ([4]; first compound 0.8 µM),relative viability ([4]; first compound 2.53 µM),relative viability ([4]; first compound 8 µM)
NCI-H727,1.09,1.05,1.38,0.67,1.12,0.628,0.529,0.71,0.479,0.725,1.04,1,1.21,1.19,0.842,0.842,0.829,1.14,0.911
HARA,1.24,1.26,1.22,1.17,1.14,,0.287,0.225,,0.237,1.18,1.13,1.21,0.835,0.735,1,1.28,1.1,1.15
NCI-H2228,1.42,1.18,1.31,0.932,1.01,0.677,0.505,0.546,0.482,0.436,0.373,0.463,0.653,0.556,0.497,0.929,1.22,1.07,0.863
LCLC-97TM1,0.827,0.619,0.764,0.603,0.375,0.989,0.905,0.984,0.879,0.794,0.32,0.322,0.463,0.961,0.638,0.668,0.666,0.796,0.444
LC-2-ad,1.06,1.05,1.01,1.03,0.817,0.717,0.639,0.814,,0.389,0.43,0.486,0.501,0.438,0.409,1.07,1.52,0.994,0.944
SK-LU-1,0.886,1.54,1.01,0.753,0.743,0.132,0.138,0.136,0.109,0.121,0.926,0.964,0.779,0.757,0.5,1,,1.38,1.27
EKVX,1.08,1,1.39,0.992,0.971,0.624,0.533,0.561,0.248,0.455,0.979,1.03,1.04,1.05,0.963,1.21,0.585,1.07,1.04
HCC-827,0.97,1.03,1.1,1.05,0.972,0.411,0.466,0.433,0.46,0.267,0.928,0.957,0.925,0.941,0.795,1,1.02,1.06,1.01
NCI-H650,0.586,0.695,0.86,,0.64,,0.41,0.393,0.245,0.32,0.66,0.639,0.745,,0.587,0.803,0.689,0.949,0.734
CAL-12T,1.09,1.07,1.2,,1.04,0.52,0.524,0.461,0.316,0.338,0.795,0.78,0.845,0.529,0.252,1.08,1.01,1.05,1.07
NCI-H2342,,,,,,0.342,0.357,0.322,0.317,0.327,,,,,,,,,
SW 900,,,,,,0.722,0.549,0.606,0.44,0.488,,,,,,,,,
IA-LM,0.977,0.87,1.08,1.07,0.677,,,,,,1.02,0.937,1.17,1.08,0.938,0.911,0.934,1.08,0.864
EPLC-272H,1.13,0.987,1.09,,0.977,0.43,0.278,0.32,0.211,0.182,0.922,0.891,0.957,,0.61,0.971,0.913,0.965,0.993
A-427,0.985,1.06,0.984,,0.764,0.483,0.666,0.707,,0.506,0.875,0.882,0.959,,0.894,1.03,0.955,1.06,0.935
NCI-H647,0.846,1.02,1.09,0.868,0.869,0.15,0.172,0.157,0.166,0.133,1.09,0.98,1.02,0.882,0.692,0.935,0.796,1.07,0.86
NCI-H1975,0.314,0.365,0.37,0.308,0.244,0.408,0.459,0.363,0.369,0.262,1.02,0.961,0.944,0.873,0.727,0.396,0.423,0.479,0.369
NCI-H358,,,,,,0.173,0.193,0.169,0.165,0.18,0.744,0.543,0.676,0.513,0.633,,,,
PC-3 [JPC-3],0.838,0.892,0.856,0.921,0.729,0.951,1,1.02,0.901,0.82,0.969,0.931,1.01,1.1,0.917,0.845,0.814,0.811,0.793
NCI-H1792,0.955,0.983,1.02,1.03,0.797,0.831,0.875,0.826,0.672,0.534,0.964,0.976,1.08,0.916,0.854,0.96,0.998,1.07,0.993
